# Reference: US11286258B2, “Nature-inspired anticancer and antibacterial motifs and pharmaceutical composition thereof” (University of Sharjah, priority 2020, dated 2022)
# Where two headings read alike, the source gives them in different places. Marks after values point to notes of the source that are not given here.
# Columns and labels:
# [1] = test system: MRSA-1 (clinical isolate); assay: MIC broth microdilution, MRSA-1; format: cell-based, Staphylococcus aureus; conditions: for MIC: Staphylococcus aureus, MRSA, read-out: MIC MRSA-1 (clinical isolate)
# Experimental: (§1) Antibacterial activity: The compounds were tested for the minimum inhibitory concentrations (MIC), which is the lowest concentration of a chemical required to inhibit visible microbial growth following overnight incubation. MIC values were determined using broth microdilution method according to the Clinical and Laboratory Standards Institute guidelines (CLSI, 2015, M07-A10). Mueller-Hinton broth was used as a culture medium in all the experiments. Exponentially growing bacterial cells were prepared in Mueller-Hinton broth at a concentration of approximately 5×10^5 CFU/mL. Two-fold serial dilutions of the test compound (8 concentrations ranged between 100-0.78 μg/mL) were tested. […] In each experiment, solvent (DMSO) was used as a negative control, un-treated control (composing of bacteria in Mueller-Hinton broth) was used as a growth control, blank (culture media alone) was used as sterility control. The 96-well microplate with the test compounds was incubated overnight at 37° C. Turbidity in wells indicated bacterial growth.
# (§2) The compounds were tested on six MDR Gram-positive bacteria including three clinical isolates of methicillin-resistant Staphylococcus aureus (MRSA-1, MRSA-2 and MRSA-3) and three reference MRSA strains (ATCC33591, ATCC33592 and ATCC700699). They were also tested on three MDR Gram-negative bacteria including New Delhi metallo-beta-lactamase (NDM-1) positive, carbapenem-resistant E. coli (ATCC BAA2469), extended-spectrum beta-lactamase (ESBL) producing, colistin-resistant E. coli (CDC-AR-0346) and carbapenem-resistant Acinetobacter baumannii (ATCC BAA1605), in addition to two non-MDR bacteria from the same species, namely E. coli (ATCC 25922) Acinetobacter baumannii (ATCC 19606).
# [2] = test system: MRSA-2 (clinical isolate); assay: MIC broth microdilution, MRSA-2; format: cell-based, Staphylococcus aureus; conditions: for MIC: Staphylococcus aureus, MRSA, read-out: MIC MRSA-2 (clinical isolate)
# Experimental: as §1, §2
# [3] = test system: MRSA-3 (clinical isolate); assay: MIC broth microdilution, MRSA-3; format: cell-based, Staphylococcus aureus; conditions: for MIC: Staphylococcus aureus, MRSA, read-out: MIC MRSA-3 (clinical isolate)
# Experimental: as §1, §2
# [4] = test system: MRSA-ATCC33591; assay: MIC broth microdilution, MRSA ATCC33591; format: cell-based, Staphylococcus aureus; conditions: for MIC: Staphylococcus aureus, read-out: MIC MRSA-ATCC33591
# Experimental: as §1, §2
# [5] = test system: MRSA-ATCC33592; assay: MIC broth microdilution, MRSA ATCC33592; format: cell-based, Staphylococcus aureus; conditions: for MIC: Staphylococcus aureus, read-out: MIC MRSA-ATCC33592
# Experimental: as §1, §2
# [6] = test system: MRSA-ATCC700699 (VISA); assay: MIC broth microdilution, MRSA ATCC700699 (VISA); format: cell-based, Staphylococcus aureus; conditions: for MIC: Staphylococcus aureus, read-out: MIC MRSA-ATCC700699 (VISA)
# Experimental: as §1, §2
# [7] = test system: E. coli ATCC25922; assay: MIC broth microdilution, E. coli ATCC25922; format: cell-based, Escherichia coli; conditions: not MDR, overnight incubation
# Experimental: as §1, §2
# [8] = test system: E. coli ATCC BAA2469 (NDM-1 carbapenem-resistant); assay: MIC broth microdilution, E. coli ATCC BAA2469; format: cell-based, Escherichia coli; conditions: overnight incubation; for MIC E. coli ATCC BAA2469 (NDM-1 carbapenem-resistant): MDR
# Experimental: as §1, §2
# [9] = test system: E. coli CDC-AR-0346 (ESBL, colistin resistant); assay: MIC broth microdilution, E. coli CDC-AR-0346; format: cell-based, Escherichia coli; conditions: MDR, overnight incubation
# Experimental: as §1, §2
# [10] = test system: Acinetobacter baumannii ATCC 19606; assay: MIC broth microdilution, A. baumannii ATCC 19606; format: cell-based; conditions: not MDR, overnight incubation
# Experimental: as §1, §2
# [11] = test system: Acinetobacter baumannii ATCC BAA1605 (carbapenem-resistant); assay: MIC broth microdilution, A. baumannii ATCC BAA1605; format: cell-based; conditions: overnight incubation; for MIC Acinetobacter baumannii ATCC BAA1605 (carbapenem-resistant): MDR
# Experimental: as §1, §2
# [12] = overnight incubation, Mueller-Hinton broth
# [13] = strain intermediately resistant to vancomycin, overnight incubation
molecule,measurement,setting,value
FC(F)(F)c1ccc(N/N=C2\C=C[C@@]3(CC2)CC[C@@H]2NCCc4c2n3c2ccc(OCc3ccccc3)cc42)cc1 [Compound 1l],MIC,[1]; [12],1.56 µg/mL
same,MIC,[2]; [12],3.12 µg/mL
same,MIC,[3]; [12],3.12 µg/mL
same,MIC,[4]; [12],3.12 µg/mL
same,MIC,[5]; [12],3.12 µg/mL
same,MIC,[6]; [13],3.12 µg/mL
COC(=O)[C@@H]1Cc2c3n(c4ccccc24)[C@@]2(C=C/C(=N\Nc4ccc(C(F)(F)F)cc4)CC2)CC[C@@H]3N1 [Compound 1m],MIC,[1]; [12],3.12 µg/mL
same,MIC,[2]; [12],3.12 µg/mL
same,MIC,[3]; [12],3.12 µg/mL
same,MIC,[4]; [12],6.25 µg/mL
same,MIC,[5]; [12],6.25 µg/mL
same,MIC,[6]; [13],6.25 µg/mL
COC(=O)[C@H]1Cc2c3n(c4ccccc24)[C@@]2(C=C/C(=N\Nc4ccc(C(F)(F)F)cc4)CC2)CC[C@@H]3N1 [Compound 1n],MIC,[1]; [12],3.12 µg/mL
same,MIC,[2]; [12],3.12 µg/mL
same,MIC,[3]; [12],3.12 µg/mL
same,MIC,[4]; [12],6.25 µg/mL
same,MIC,[5]; [12],6.25 µg/mL
same,MIC,[6]; [13],6.25 µg/mL
C[C@@H](O)[C@H]1C(=O)N2C(C(=O)O)=C(S[C@@H]3CN[C@H](C(=O)N(C)C)C3)[C@H](C)[C@H]12 [Meropenem],MIC,"[7]; Escherichia coli, ATCC25922",< 0.02 µg/mL
same,MIC,"[8]; Escherichia coli, ATCCBAA2469, MDR",25 µg/mL
same,MIC,[9]; Escherichia coli,< 0.2 µg/mL
same,MIC,"[10]; Acinetobacter baumannii, ATCC19606",0.6 µg/mL
same,MIC,"[11]; Acinetobacter baumannii, ATCCBAA1605, MDR",12.5 µg/mL
"CN[C@H](CC(C)C)C(=O)N[C@H]1C(=O)N[C@@H](CC(N)=O)C(=O)N[C@H]2C(=O)N[C@H]3C(=O)N[C@H](C(=O)N[C@H](C(=O)O)c4cc(O)cc(O)c4-c4cc3ccc4O)[C@H](O)c3ccc(c(Cl)c3)Oc3cc2cc(c3O[C@@H]2O[C@H](CO)[C@@H](O)[C@H](O)[C@H]2O[C@H]2C[C@](C)(N)[C@H](O)[C@H](C)O2)Oc2ccc(cc2Cl)[C@H]1O [Vancomycin, reference compound]",MIC,[1],1 µg/mL
same,MIC,[2],1 µg/mL
same,MIC,[3],1 µg/mL
same,MIC,[4],1 µg/mL
same,MIC,[5],1 µg/mL
same,MIC,[6],8 µg/mL
same,MIC MRSA-ATCC700699 (VISA),[6]; [13],8 * μg/mL
Colistin,MIC E. coli ATCC25922,[7],0.2 µg/mL
same,MIC E. coli ATCC BAA2469 (NDM-1 carbapenem-resistant),[8],1.25 µg/mL
same,"MIC E. coli CDC-AR-0346 (ESBL, colistin resistant)",[9],6.25 µg/mL
same,MIC Acinetobacter baumannii ATCC 19606,[10],1.25 µg/mL
same,MIC Acinetobacter baumannii ATCC BAA1605 (carbapenem-resistant),[11],1.25 µg/mL
Gentamicin [reference compound],MIC MRSA-1 (clinical isolate),[1]; [12],50 µg/mL
same,MIC MRSA-2 (clinical isolate),[2]; [12],0.625 µg/mL
same,MIC MRSA-3 (clinical isolate),[3]; [12],0.625 µg/mL
same,MIC MRSA-ATCC33591,[4]; [12],2.5 µg/mL
same,MIC MRSA-ATCC33592,[5]; [12],>500 µg/mL
same,MIC MRSA-ATCC700699 (VISA),[6]; [13],500 µg/mL
same,MIC E. coli ATCC25922,[7],0.625 µg/mL
same,MIC E. coli ATCC BAA2469 (NDM-1 carbapenem-resistant),[8],>1000 µg/mL
same,"MIC E. coli CDC-AR-0346 (ESBL, colistin resistant)",[9],>1000 µg/mL
same,MIC Acinetobacter baumannii ATCC 19606,[10],10 µg/mL
same,MIC Acinetobacter baumannii ATCC BAA1605 (carbapenem-resistant),[11],125 µg/mL
